Measured values as given in ChEMBL document CHEMBL5303573, “Mapping human microbiome drug metabolism by gut bacteria and their genes” (Nature, 2019).

How the values were obtained:
[1] = The drug is tested on Collinsella aerofaciens strain: ATCC25986 for biotransformation. The drug concentrations were measured before and after a 12-h incubation by liquid-chromatography-coupled mass spectrometry (LC–MS); settings: 2 µM
[2] = The drug is tested on Bacteroides coprophilus strain: DSM18228 for biotransformation. The drug concentrations were measured before and after a 12-h incubation by liquid-chromatography-coupled mass spectrometry (LC–MS); settings: 2 µM
[3] = The drug is tested on Ruminococcus lactaris strain: ATCC29176 for biotransformation. The drug concentrations were measured before and after a 12-h incubation by liquid-chromatography-coupled mass spectrometry (LC–MS); settings: 2 µM
[4] = The drug is tested on Subdoligranulum variabile strain: DSM15176 for biotransformation. The drug concentrations were measured before and after a 12-h incubation by liquid-chromatography-coupled mass spectrometry (LC–MS); settings: 2 µM
[5] = The drug is tested on Escherichia coli strain: BW25113 for biotransformation. The drug concentrations were measured before and after a 12-h incubation by liquid-chromatography-coupled mass spectrometry (LC–MS); settings: 2 µM
[6] = victivallis vadensis, 12 h, 2 µM
Description: The drug is tested on Victivallis vadensis strain: ATCC BAA-548 for biotransformation. The drug concentrations were measured before and after a 12-h incubation by liquid-chromatography-coupled mass spectrometry (LC–MS)

[7] = The drug is tested on Eggerthella lenta strain: ATCC25559 for biotransformation. The drug concentrations were measured before and after a 12-h incubation by liquid-chromatography-coupled mass spectrometry (LC–MS); settings: 2 µM

SMILES | Bacterial Biotransformation [1] | Bacterial Biotransformation [2] | Bacterial Biotransformation [3] | Bacterial Biotransformation [4] | Bacterial Biotransformation [5] | Bacterial Biotransformation [6] | Bacterial Biotransformation [7]
Cc1cc2c(cc1S(N)(=O)=O)S(=O)(=O)CCC2 | Compound NOT metabolized | Compound NOT metabolized | Compound NOT metabolized | Compound NOT metabolized | Compound NOT metabolized | Compound NOT metabolized | –
CC1OC(OC2C(O)CC(OC3C(O)CC(OC4CCC5(C)C(CCC6C5CCC5(C)C(C7=CC(=O)OC7)CCC65O)C4)OC3C)OC2C)CC(O)C1O (centres undefined) | Compound NOT metabolized | Compound metabolized | Compound NOT metabolized | Compound NOT metabolized | Compound NOT metabolized | Compound NOT metabolized | –
CC(=O)O[C@]1(C(C)=O)CC[C@H]2[C@@H]3C=C(Cl)C4=CC(=O)[C@@H]5C[C@@H]5[C@]4(C)[C@H]3CC[C@@]21C [CYPROTERONE ACETATE] | Compound metabolized | Compound metabolized | Compound NOT metabolized | Compound NOT metabolized | Compound metabolized | Compound NOT metabolized | –
CN(C)CC(c1ccc(O)cc1)C1(O)CCCCC1.O=C(O)CCC(=O)O (centres undefined) [DESVENLAFAXINE SUCCINATE] | Compound NOT metabolized | Compound NOT metabolized | Compound NOT metabolized | Compound NOT metabolized | Compound NOT metabolized | – | Compound NOT metabolized
CCN(CC)CCOC(=O)C1(C2CCCCC2)CCCCC1 [DICYCLOMINE] | Compound NOT metabolized | Compound NOT metabolized | Compound NOT metabolized | – | – | Compound NOT metabolized | Compound metabolized
O=c1[nH]c2ccccc2n1CCCN1CCC(n2c(=O)[nH]c3cc(Cl)ccc32)CC1 [DOMPERIDONE] | Compound NOT metabolized | Compound NOT metabolized | Compound NOT metabolized | Compound NOT metabolized | Compound NOT metabolized | Compound NOT metabolized | –
COc1cc2nc(N3CCN(C(=O)C4COc5ccccc5O4)CC3)nc(N)c2cc1OC.CS(=O)(=O)O (centres undefined) [DOXAZOSIN MESYLATE] | Compound NOT metabolized | Compound NOT metabolized | Compound NOT metabolized | Compound NOT metabolized | Compound metabolized | Compound NOT metabolized | –
CN(C)CCOC(C)(c1ccccc1)c1ccccn1.O=C(O)CCC(=O)O (centres undefined) [DOXYLAMINE SUCCINATE] | Compound NOT metabolized | Compound NOT metabolized | Compound NOT metabolized | Compound NOT metabolized | Compound NOT metabolized | Compound NOT metabolized | –
CCOC(=O)[C@H](CCc1ccccc1)N[C@@H](C)C(=O)N1CCC[C@H]1C(=O)O.O=C(O)/C=C\C(=O)O [ENALAPRIL MALEATE] | Compound NOT metabolized | – | Compound NOT metabolized | Compound NOT metabolized | Compound NOT metabolized | Compound NOT metabolized | –
CC(C)(C)NC(=O)[C@H]1CC[C@H]2[C@@H]3CC[C@H]4NC(=O)C=C[C@]4(C)[C@H]3CC[C@]12C [FINASTERIDE] | Compound NOT metabolized | Compound NOT metabolized | Compound NOT metabolized | – | Compound NOT metabolized | Compound NOT metabolized | –
OC(Cn1cncn1)(Cn1cncn1)c1ccc(F)cc1F [FLUCONAZOLE] | Compound NOT metabolized | Compound NOT metabolized | Compound NOT metabolized | – | Compound NOT metabolized | – | Compound NOT metabolized
COc1ccc2c(c1)c(CC(=O)O)c(C)n2C(=O)c1ccc(Cl)cc1 [INDOMETHACIN] | Compound NOT metabolized | Compound metabolized | – | – | Compound metabolized | Compound NOT metabolized | Compound NOT metabolized
COC(=O)C1=C(C)NC(C)=C(C(=O)OC(C)C)C1c1cccc2nonc12 (centres undefined) [ISRADIPINE] | Compound NOT metabolized | Compound NOT metabolized | Compound NOT metabolized | Compound NOT metabolized | Compound NOT metabolized | – | Compound NOT metabolized
CCC(C)n1ncn(-c2ccc(N3CCN(c4ccc(OCC5COC(Cn6cncn6)(c6ccc(Cl)cc6Cl)O5)cc4)CC3)cc2)c1=O (centres undefined) [ITRACONAZOLE] | Compound NOT metabolized | Compound NOT metabolized | Compound NOT metabolized | – | Compound NOT metabolized | Compound NOT metabolized | Compound NOT metabolized
CN1CCC(=C2c3ccccc3CC(=O)c3sccc32)CC1.O=C(O)/C=C/C(=O)O [KETOTIFEN FUMARATE] | Compound NOT metabolized | Compound NOT metabolized | Compound NOT metabolized | Compound NOT metabolized | – | – | Compound NOT metabolized
CC(CCc1ccccc1)NCC(O)c1ccc(O)c(C(N)=O)c1 (centres undefined) [LABETALOL] | Compound NOT metabolized | Compound NOT metabolized | Compound NOT metabolized | Compound NOT metabolized | Compound NOT metabolized | – | Compound NOT metabolized
N#Cc1ccc(C(c2ccc(C#N)cc2)n2cncn2)cc1 [LETROZOLE] | Compound NOT metabolized | Compound NOT metabolized | Compound NOT metabolized | Compound NOT metabolized | Compound NOT metabolized | Compound NOT metabolized | –
CC(=O)O[C@]1(C(C)=O)CC[C@H]2[C@@H]3C=C(C)C4=CC(=O)CC[C@]4(C)[C@H]3CC[C@@]21C [MEGESTROL ACETATE] | Compound metabolized | Compound NOT metabolized | Compound NOT metabolized | Compound NOT metabolized | Compound metabolized | – | Compound NOT metabolized
COc1ccccc1OCC(O)COC(N)=O (centres undefined) [METHOCARBAMOL] | Compound NOT metabolized | Compound NOT metabolized | – | Compound NOT metabolized | – | Compound NOT metabolized | Compound NOT metabolized
CCN(CC)CCNC(=O)c1cc(Cl)c(N)cc1OC [METOCLOPRAMIDE] | Compound NOT metabolized | Compound NOT metabolized | Compound NOT metabolized | Compound NOT metabolized | Compound NOT metabolized | – | Compound NOT metabolized
COCCc1ccc(OCC(O)CNC(C)C)cc1.COCCc1ccc(OCC(O)CNC(C)C)cc1.O=C(O)C(O)C(O)C(=O)O (centres undefined) [METOPROLOL TARTRATE] | Compound NOT metabolized | Compound NOT metabolized | Compound NOT metabolized | – | Compound NOT metabolized | – | Compound NOT metabolized
CCN(CC)CCOC(=O)C(Cc1cccc2ccccc12)CC1CCCO1.O=C(O)C(=O)O (centres undefined) [NAFRONYL OXALATE] | Compound NOT metabolized | – | Compound NOT metabolized | – | – | Compound NOT metabolized | –
COc1ccccc1N1CCN(CC(O)COc2cccc3ccccc23)CC1 (centres undefined) [NAFTOPIDIL] | Compound NOT metabolized | Compound NOT metabolized | Compound NOT metabolized | Compound NOT metabolized | Compound NOT metabolized | – | Compound NOT metabolized
CN(C)C(=O)Oc1cccc([N+](C)(C)C)c1.[Br-] [NEOSTIGMINE BROMIDE] | Compound NOT metabolized | Compound metabolized | Compound NOT metabolized | – | Compound NOT metabolized | – | Compound NOT metabolized
Cc1cc2c(s1)Nc1ccccc1N=C2N1CCN(C)CC1 [OLANZAPINE] | Compound NOT metabolized | Compound metabolized | Compound NOT metabolized | Compound NOT metabolized | Compound NOT metabolized | Compound NOT metabolized | –
COc1ccc(Cc2nccc3cc(OC)c(OC)cc23)cc1OC [PAPAVERINE] | Compound NOT metabolized | Compound NOT metabolized | Compound NOT metabolized | Compound NOT metabolized | Compound NOT metabolized | – | Compound NOT metabolized
